The source of these data is publication PMC6260619, “Selective Cytotoxicity of Goniothalamin against Hepatoblastoma HepG2 Cells” (Molecules, 2011).

As a reminder, the IC50 is the concentration that gives 50% inhibition.

This experiment has as its system Chang cells. As to the kind of experiment: LDH leakage assay, Chang. The format is cell-based, human. As to conditions: for IC50: read-out: IC50 from LDH. How it is done:
Measurement of LDH activity is another indicator of cell viability through evaluation of the cell membrane permeability. The enzyme activity is measured externally, as it leaks from dead cells which lose their membrane integrity. LDH leakage detection is based on the loss of NADH due to its oxidation to NAD^+, resulting in the conversion of pyruvate to lactate. Untreated cells should retain LDH in their cells and have minimal loss over the time of the assay. Triton X-100-treated cells that give the maximum loss of LDH were used as the positive control in this assay.
To determine the effect of goniothalamin on membrane permeability in HepG2 and Chang cell lines, a lactate dehydrogenase (LDH) release assay was used. The cells were seeded in 96-well culture plates at a density of 2 × 10^4 cells/well in 100 μL volume and allowed to grow for 18 hours before treatment. After treatment, the plates were incubated for 24, 48 and 72 hours, respectively. Then, the supernatant (40 μL) was transferred to a new 96 well to determine LDH release and 6% triton X-100 (40 μL) was added to the original plate for determination of total LDH. An aliquot of 0.1 M potassium phosphate buffer (100 μL, pH 7.5) containing 4.6 mM pyruvic acid was mixed to the supernatant using repeated pipetting. Then, 0.1 M potassium phosphate buffer (100 μL, pH 7.5) containing 0.4 mg/mL reduced β-NADH was added to the wells. The kinetic changes were read for 1 min using ELISA microplate reader in absorbance at wavelength 340 nm. This procedure was repeated with 40 μL of the total cell lysate to determine total LDH U/well. A change of 0.001 absorbance units/min is equivalent to 1 U/L of LDH activity. The percentage of LDH release was determined by dividing the LDH released into the media by the total LDH following cell lysis in the same well.
In general terms: LDH in the medium is a marker of cell lysis.

The structures appear in SMILES notation. Read-outs that look alike come from different tables or passages of the source.

Consider `O=C1C=CC[C@H](/C=C/c2ccccc2)O1` [Goniothalamin, 5-hydroxy-7-phenylhepta-2,6-dienoic acid lactone], for which the “increase in LDH leakage” value (Chang, 4.7 µM, 72 hours) is reported as 19%. Also, the “loss of viability (LDH leakage)” value (Chang, 37.5 µM) was at most 52%. For the same compound, the “toxicity (LDH leakage)” value (Chang, 2.3, 4.7 or 9.4 µM, on completion of incubation) is recorded as “no significant toxicity”. Also, the IC50 is, setting by setting: (Chang, 72 hours) 32.5 µM; (Homo sapiens, 24 h, Chang, 24 hours) 69.6 µM; (Homo sapiens, 48 h, Chang, 48 hours) 55.1 µM; (Homo sapiens, 72 h, Chang, 72 hours) 32.5 µM.
